Test results reported in patent publication US11046647B2, “Activators of the unfolded protein response” (The Board of Trustees of the University of Illinois, priority 2018, dated 2021).
pIC50: −log10 of the molar value.

Columns and labels:
Assay type in all cases: cell-based, human
MCF-7 cells [1] = test: Alamar Blue/raptinal 24-hour cell death assay, MCF-7; settings: for pIC50: 24-hour incubation, Alamar blue fluorescence, normalized to vehicle and raptinal
Procedure: FIG. 4. […] MCF7 (ERα) cells, 24 hour incubation, read out via Alamar Blue Fluorescence, Dead Control: Raptinal, n=3 (A, B). […] Orthotopic Mouse Xenograft breast cancers of TYS cells, Visualization by bioluminescent imaging. Treatment: 40 mg/kg daily (−)-105 for 3 days either by oral gavage or by intraperitoneal injection.
ALAMAR BLUE/RAPTINAL ASSAY: Live cells maintain a reducing environment. The non-fluorescent cell permeable ingredient of Alamar Blue® (resazurin) is taken up by cells. In living cells, it is reduced to the fluorescent compound resorufin. Using a standard curve of cell number versus fluorescence the number of live cells in a test sample can be determined. At high concentrations raptinal kills 100% of cells. The vehicle in which the test compound is dissolved is not toxic. Thus, after subtracting the blank for medium alone, the fluorescence reading for vehicle corresponds to 100% viable cells and the signal for raptinal corresponds to 0% viable cells. While this assay provides a less direct measurement of cell death than the trypan blue assay, it is more easily scaled up to large numbers of samples.
ALAMAR BLUE RAPTINAL ASSAYS: Cells were plated at 4,000-10,000 cells/well (96 well plate), usually in 50 μl of medium. After about 18 hours, an additional 50 μl of medium containing 2× the desired final concentration of the test compound (C-105) was added to each well. After 24 hours Alamar Blue reagent was added and fluorescence in the wells was read (BMG PheraStar or Molecular Devices Spectra Max M3 Microplate Reader). % relative death was determined by setting the reading for raptinal-treated cells to 100% dead cells and the reading for vehicle-treated cells to 0% dead cells.
Preparative gram-scale chiral separation of (±)-1 yields enantiopure (R)-1 and (S)-1 with opposite optical rotations (Scheme 5). […] Values were obtained after 24-hour incubation utilizing Alamar blue fluorescence assay normalized to live and death controls (vehicle and raptinal treated). (S)-1 IC50 is >1 μM. Error shown as S.E.M.

MCF-7 cells [2] = test: Dose-dependent death of MCF-7 cells (FIG. 10)
TDG cells = test: Trypan Blue exclusion cell death assay, TDG / TDG-Luc; settings: 24 hours
Source text: (§1) TRYPAN BLUE: For decades, viable cells have been measured by their ability to exclude the dye Trypan Blue. […] Dead cells, which have lost membrane integrity, take up the dye and are blue. Thus, the percentage of dead cells is the percentage of cells that are Trypan Blue positive out of the total cell population. Quantitative assessment of Trypan Blue uptake uses a cell counter from Fisher. Since the assay is instrument based, there is no observer bias in determining the percentage of Trypan Blue positive cells.
(§2) TRYPAN BLUE ASSAYS: Assays are performed on cells in 6 well plates: 300,000 cells are plated in each well of a 6-well plate in 3 ml of medium. After 24 hours, the DMSO vehicle or the indicated compound is added (in 1000th of the vol.) The cells incubated for an additional 24 hours, and then harvested in 0.25 ml of trypsin, followed after harvest by 0.75 ml of medium. The cells are spun down and resuspended in 100-200 μl of medium left that is over the cell pellet (resuspend cells by pipetting up and down a few times). Add 10 μl to 10 μl of trypan blue. Then 10 μl is inserted into the counting slide. After inserting the slide into the Fisher TC20 counting is automatic (these many cells are needed because an accurate ratio of Trypan Blue positive to Trypan Blue negative cells requires about 200 cells in the field the instrument counts).
The Trypan Blue cell death assay was used to evaluate the ability of the active enantiomer of C-105 [(−)-105] to kill ERα positive TDG-Luc cells. For all studies, 300,000 TDG-Luc cells/well in 10% FBS were plated in a 6-well plate in triplicate. 24 hours after plating, the indicated concentrations the active enantiomer of (−)-105, or BHPI (top) ICI, or OHT (Lower left) or (+)-105 (lower right) were added. After 24 hours, the cells were harvested, and the % dead cells was determined by automated Trypan Blue exclusion using the Countess II automated hemocytometer. Percentage of viable cells was calculated by doing 100-(Cell Death %). (n=3±SEM).
TDG cells were incubated for 24 hours with 75 nM of BHPI or 75 nM of each of the indicated test compounds: 4, 6 and (±)-105 (enantiomers not separated). Cell death was determined using the instrument-based Trypan Blue exclusion assay. Structures are in the Synthesis section. […] (n=3±SEM).

TYS cells = test: Trypan Blue exclusion cell death assay, TYS / TYS-Luc; settings: 24 hours
Source text: as §1, §2
The Trypan Blue cell death assay was used to evaluate the ability of the active enantiomer of 105 (−) [(−)-105] to kill ERα positive MCF-7 and TYS-Luc, human breast cancer cells. 300,000 T47D cells/well in 10% FBS were plated in a 6-well plate in triplicate. 24 hours after plating, the indicated concentrations of BHPI, or the active enantiomer 105 (−) of C-105 [(−)-105] was added. After 24 hours, the cells were harvested, and the % dead cells was determined by automated Trypan Blue exclusion using the Countess II automated hemocytometer. Percentage of viable cells was calculated by doing 100-(Cell Death %). (n=3±SEM).
TYS cells were incubated for 24 hours with 35 nM of BHPI or 35 nM of each of the indicated test compounds: 2, 4, and 105. Cell death was determined using the instrument-based Trypan Blue exclusion assay.
TYS cells were incubated for 24 hours with 50 nM of BHPI or 50 nM of each of the indicated test compounds: 4, 6 and 105. Cell death was determined using the instrument-based Trypan Blue exclusion assay. (n=3±SEM).

T47D cells = test: Trypan Blue exclusion cell death assay, T47D / T47D-Luc; settings: 24 hours
Source text: as §1
as §2, with “After inserting the slide into the Fisher TC20 counting is automatic (these many cells are needed because an accurate ratio of Trypan Blue positive to Trypan Blue negative cells requires about 200 cells in the field the instrument counts).” left out
The Trypan Blue cell death assay was used to compare the ability of the active (−) enantiomer of C-105 and BHPI to kill estrogen receptor α (ERα) positive T47D, human breast cancer cells expressing luciferase (T47D-Luc cells). […] After 24 hours, the cells were harvested, and the % dead cells was determined by automated Trypan Blue exclusion using the Countess II automated hemocytometer. Percentage of viable cells was calculated by doing 100-(Cell Death %). […]
T47D cells were incubated for 24 hours with 75 nM of BHPI or 75 nM of each of the indicated test compounds: 4 and 6. Cell death was determined using the instrument-based Trypan Blue exclusion assay. […]
T47D cells were treated for 24 hours with 100 nM BHPI, or with 100 nM of each of the test compounds: 6, 8, and 105. […] Cell death was determined using the instrument-based Trypan Blue exclusion assay. […]

SMILES | pIC50 (MCF-7 cells [1]; Homo sapiens, MCF7) | cell death (MCF-7 cells [2]) | ability to kill TDG cells compared to BHPI (TDG cells; 75 nM) | ability to kill TYS cells compared to BHPI (TYS cells; 35 nM) | ability to kill TYS cells compared to BHPI (TYS cells; 50 nM) | ability to kill T47D cells compared to BHPI (T47D cells; 100 nM) | pIC50 (MCF-7 cells [1]; listed as (R)-1) | ability to kill compared with BHPI and 01-15 (FIG. 4B) (MCF-7 cells [1]; 24 hour incubation, dead control raptinal) | killing of TDG-Luc cells, dose response (TDG cells; TDG-Luc) | killing of TYS-Luc cells, dose response (TYS cells; TYS-Luc) | killing of T47D cells, dose response (T47D cells; T47D-Luc)
O=C1Nc2c(C(F)(F)F)cccc2C1(c1ccc(O)cc1)c1ccc(OC(F)(F)F)cc1 (racemic) [(±)-105, 3-(4-hydroxyphenyl)-3-(4-(trifluoromethoxy)phenyl)-7-(trifluoromethyl)indolin-2-one] | 7.37 | inactive | greatly increased ability to kill | greatly increased ability to kill | increased ability to kill | increased ability to kill |  |  |  |  | 
O=C1Nc2c(C(F)(F)F)cccc2C1(c1ccc(O)cc1)c1ccc(OC(F)(F)F)cc1 (single isomer, unassigned; (-)) [(−)-105, 3-(4-hydroxyphenyl)-3-(4-(trifluoromethoxy)phenyl)-7-(trifluoromethyl)indolin-2-one] |  | induces dose-dependent death |  |  |  |  | 7.69 | superior to BHPI and 01-15 | superior to BHPI and current endocrine therapies | superior to BHPI | superior to BHPI
